Data published in ChEMBL document CHEMBL5154747, “Discovery of new carbonic anhydrase IX inhibitors as anticancer agents by toning the hydrophobic and hydrophilic rims of the active site to encounter the dual-tail approach” (Eur J Med Chem, 2022).

tested on: HL-60(TB); experiment: Anticancer activity against human HL-60(TB) cells assessed as cell growth inhibition at 10 uM incubated for 48 hrs by SRB assay relative to control; type: functional; details: read-out: GI

Compound | inhibition of growth at 10 µM [%]
NS(=O)(=O)c1ccc(Nc2nc(N/N=C/c3c[nH]c4ccccc34)nc(Nc3ccccc3)n2)cc1 | 65

tested on: SK-OV-3; experiment: Anticancer activity against human SK-OV-3 cells assessed as cell growth inhibition at 10 uM incubated for 48 hrs by SRB assay relative to control; type: functional; details: read-out: GI

Compound | inhibition of growth at 10 µM [%]
NS(=O)(=O)c1ccc(Nc2nc(N/N=C/c3c[nH]c4ccccc34)nc(Nc3ccccc3)n2)cc1 | < 10

tested on: NCI-H522; experiment: Anticancer activity against human NCI-H522 cells assessed as cell growth inhibition at 10 uM incubated for 48 hrs by SRB assay relative to control; type: functional; details: read-out: GI

Compound | inhibition of growth at 10 µM [%]
NS(=O)(=O)c1ccc(Nc2nc(N/N=C/c3c[nH]c4ccccc34)nc(Nc3ccccc3)n2)cc1 | 68

tested on: HCT-15; experiment: Anticancer activity against human HCT-15 cells assessed as cell growth inhibition at 10 uM incubated for 48 hrs by SRB assay relative to control; type: functional; details: read-out: GI

Compound | inhibition of growth at 10 µM [%]
NS(=O)(=O)c1ccc(Nc2nc(N/N=C/c3c[nH]c4ccccc34)nc(Nc3ccccc3)n2)cc1 | 24

tested on: 786-0; experiment: Anticancer activity against human 786-0 cells assessed as cell growth inhibition at 10 uM incubated for 48 hrs by SRB assay relative to control; type: functional; details: read-out: GI

Compound | inhibition of growth at 10 µM [%]
NS(=O)(=O)c1ccc(Nc2nc(N/N=C/c3c[nH]c4ccccc34)nc(Nc3ccccc3)n2)cc1 | 58

tested on: SN12C; experiment: Anticancer activity against human SN12C cells assessed as cell growth inhibition at 10 uM incubated for 48 hrs by SRB assay relative to control; type: functional; details: read-out: GI

Compound | inhibition of growth at 10 µM [%]
NS(=O)(=O)c1ccc(Nc2nc(N/N=C/c3c[nH]c4ccccc34)nc(Nc3ccccc3)n2)cc1 | 59

tested on: Hs-578T; experiment: Anticancer activity against human Hs-578T cells assessed as cell growth inhibition at 10 uM incubated for 48 hrs by SRB assay relative to control; type: functional; details: read-out: GI

Compound | inhibition of growth at 10 µM [%]
NS(=O)(=O)c1ccc(Nc2nc(N/N=C/c3c[nH]c4ccccc34)nc(Nc3ccccc3)n2)cc1 | 57

tested on: LOX IMVI; experiment: Anticancer activity against human LOX IMVI cells assessed as cell growth inhibition at 10 uM incubated for 48 hrs by SRB assay relative to control; type: functional; details: read-out: GI

Compound | inhibition of growth at 10 µM [%]
NS(=O)(=O)c1ccc(Nc2nc(N/N=C/c3c[nH]c4ccccc34)nc(Nc3ccccc3)n2)cc1 | 110

tested on: OVCAR-8; experiment: Anticancer activity against human OVCAR-8 cells assessed as cell growth inhibition at 10 uM incubated for 48 hrs by SRB assay relative to control; type: functional; details: read-out: GI

Compound | inhibition of growth at 10 µM [%]
NS(=O)(=O)c1ccc(Nc2nc(N/N=C/c3c[nH]c4ccccc34)nc(Nc3ccccc3)n2)cc1 | 62

tested on: RPMI-8226; experiment: Anticancer activity against human RPMI-8226 cells assessed as cell growth inhibition at 10 uM incubated for 48 hrs by SRB assay relative to control; type: functional; details: read-out: GI

Compound | inhibition of growth at 10 µM [%]
NS(=O)(=O)c1ccc(Nc2nc(N/N=C/c3c[nH]c4ccccc34)nc(Nc3ccccc3)n2)cc1 | 105

tested on: SR; experiment: Anticancer activity against human SR cells assessed as cell growth inhibition at 10 uM incubated for 48 hrs by SRB assay relative to control; type: functional; details: read-out: GI

Compound | inhibition of growth at 10 µM [%]
NS(=O)(=O)c1ccc(Nc2nc(N/N=C/c3c[nH]c4ccccc34)nc(Nc3ccccc3)n2)cc1 | 87

tested on: SNB-75; experiment: Anticancer activity against human SNB-75 cells assessed as cell growth inhibition at 10 uM incubated for 48 hrs by SRB assay relative to control; type: functional; details: read-out: GI

Compound | inhibition of growth at 10 µM [%]
NS(=O)(=O)c1ccc(Nc2nc(N/N=C/c3c[nH]c4ccccc34)nc(Nc3ccccc3)n2)cc1 | 29

tested on: NCI-H23; experiment: Anticancer activity against human NCI-H23 cells assessed as cell growth inhibition at 10 uM incubated for 48 hrs by SRB assay relative to control; type: functional; details: read-out: GI

Compound | inhibition of growth at 10 µM [%]
NS(=O)(=O)c1ccc(Nc2nc(N/N=C/c3c[nH]c4ccccc34)nc(Nc3ccccc3)n2)cc1 | 52

tested on: UACC-62; experiment: Anticancer activity against human UACC-62 cells assessed as cell growth inhibition at 10 uM incubated for 48 hrs by SRB assay relative to control; type: functional; details: read-out: GI

Compound | inhibition of growth at 10 µM [%]
NS(=O)(=O)c1ccc(Nc2nc(N/N=C/c3c[nH]c4ccccc34)nc(Nc3ccccc3)n2)cc1 | 61

tested on: Malme-3M; experiment: Anticancer activity against human Malme-3M cells assessed as cell growth inhibition at 10 uM incubated for 48 hrs by SRB assay relative to control; type: functional; details: read-out: GI

Compound | inhibition of growth at 10 µM [%]
NS(=O)(=O)c1ccc(Nc2nc(N/N=C/c3c[nH]c4ccccc34)nc(Nc3ccccc3)n2)cc1 | 53

tested on: T47D; experiment: Anticancer activity against human T47D cells assessed as cell growth inhibition at 10 uM incubated for 48 hrs by SRB assay relative to control; type: functional; details: read-out: GI

Compound | inhibition of growth at 10 µM [%]
NS(=O)(=O)c1ccc(Nc2nc(N/N=C/c3c[nH]c4ccccc34)nc(Nc3ccccc3)n2)cc1 | 64

tested on: ACHN; experiment: Anticancer activity against human ACHN cells assessed as cell growth inhibition at 10 uM incubated for 48 hrs by SRB assay relative to control; type: functional; details: read-out: GI

Compound | inhibition of growth at 10 µM [%]
NS(=O)(=O)c1ccc(Nc2nc(N/N=C/c3c[nH]c4ccccc34)nc(Nc3ccccc3)n2)cc1 | 18

tested on: EKVX; experiment: Anticancer activity against human EKVX cells assessed as cell growth inhibition at 10 uM incubated for 48 hrs by SRB assay relative to control; type: functional; details: read-out: GI

Compound | inhibition of growth at 10 µM [%]
NS(=O)(=O)c1ccc(Nc2nc(N/N=C/c3c[nH]c4ccccc34)nc(Nc3ccccc3)n2)cc1 | 32

tested on: SF-539; experiment: Anticancer activity against human SF-539 cells assessed as cell growth inhibition at 10 uM incubated for 48 hrs by SRB assay relative to control; type: functional; details: read-out: GI

Compound | inhibition of growth at 10 µM [%]
NS(=O)(=O)c1ccc(Nc2nc(N/N=C/c3c[nH]c4ccccc34)nc(Nc3ccccc3)n2)cc1 | 52

tested on: K562; experiment: Anticancer activity against human K562 cells assessed as cell growth inhibition at 10 uM incubated for 48 hrs by SRB assay relative to control; type: functional; details: read-out: GI

Compound | inhibition of growth at 10 µM [%]
NS(=O)(=O)c1ccc(Nc2nc(N/N=C/c3c[nH]c4ccccc34)nc(Nc3ccccc3)n2)cc1 | 77
